Laboratory results taken from the NIST ThermoML archive (doi:10.1021/je050169y).
Numbers after ± are expanded uncertainties.

Assay: xn = mol fraction of the nth substance listed
Conditions: 101 kPa, Liquid

ClC(Cl)Cl [trichloromethane] + CCCO
mass density (303.15 K, x1 = 0.0521): 834.23 ± 0.85 kg/m3
speed of sound (303.15 K, x1 = 0.0521): 1171 ± 3 m/s
viscosity (303.15 K, x1 = 0.0521): 1.628 ± 0.039 mPa·s
mass density (303.15 K, x1 = 0.0996): 868.17 ± 0.9 kg/m3
speed of sound (303.15 K, x1 = 0.0996): 1153 ± 3 m/s
viscosity (303.15 K, x1 = 0.0996): 1.541 ± 0.037 mPa·s
mass density (303.15 K, x1 = 0.1504): 904.1 ± 0.96 kg/m3
speed of sound (303.15 K, x1 = 0.1504): 1134 ± 3 m/s
viscosity (303.15 K, x1 = 0.1504): 1.435 ± 0.035 mPa·s
mass density (303.15 K, x1 = 0.201): 939.51 ± 1 kg/m3
speed of sound (303.15 K, x1 = 0.201): 1116 ± 3 m/s
viscosity (303.15 K, x1 = 0.201): 1.331 ± 0.032 mPa·s
mass density (303.15 K, x1 = 0.2498): 973.47 ± 1.1 kg/m3
speed of sound (303.15 K, x1 = 0.2498): 1100 ± 3 m/s
viscosity (303.15 K, x1 = 0.2498): 1.233 ± 0.03 mPa·s
mass density (303.15 K, x1 = 0.3057): 1011.95 ± 1.1 kg/m3
speed of sound (303.15 K, x1 = 0.3057): 1083 ± 3 m/s
viscosity (303.15 K, x1 = 0.3057): 1.113 ± 0.028 mPa·s
mass density (303.15 K, x1 = 0.3499): 1042.15 ± 1.2 kg/m3
speed of sound (303.15 K, x1 = 0.3499): 1070 ± 3 m/s
viscosity (303.15 K, x1 = 0.3499): 1.044 ± 0.026 mPa·s
mass density (303.15 K, x1 = 0.4031): 1078.28 ± 1.2 kg/m3
speed of sound (303.15 K, x1 = 0.4031): 1056 ± 3 m/s
viscosity (303.15 K, x1 = 0.4031): 0.956 ± 0.024 mPa·s
mass density (303.15 K, x1 = 0.451): 1110.46 ± 1.3 kg/m3
speed of sound (303.15 K, x1 = 0.451): 1042 ± 3 m/s
viscosity (303.15 K, x1 = 0.451): 0.884 ± 0.023 mPa·s
mass density (303.15 K, x1 = 0.5056): 1147.02 ± 1.4 kg/m3
speed of sound (303.15 K, x1 = 0.5056): 1028 ± 3 m/s
viscosity (303.15 K, x1 = 0.5056): 0.813 ± 0.021 mPa·s
mass density (303.15 K, x1 = 0.5541): 1179.18 ± 1.4 kg/m3
speed of sound (303.15 K, x1 = 0.5541): 1017 ± 3 m/s
viscosity (303.15 K, x1 = 0.5541): 0.76 ± 0.02 mPa·s
mass density (303.15 K, x1 = 0.5994): 1209.1 ± 1.5 kg/m3
speed of sound (303.15 K, x1 = 0.5994): 1007 ± 3 m/s
viscosity (303.15 K, x1 = 0.5994): 0.723 ± 0.019 mPa·s
mass density (303.15 K, x1 = 0.6511): 1243.11 ± 1.5 kg/m3
speed of sound (303.15 K, x1 = 0.6511): 997 ± 3 m/s
viscosity (303.15 K, x1 = 0.6511): 0.68 ± 0.018 mPa·s
mass density (303.15 K, x1 = 0.7033): 1277.26 ± 1.6 kg/m3
speed of sound (303.15 K, x1 = 0.7033): 988 ± 3 m/s
viscosity (303.15 K, x1 = 0.7033): 0.654 ± 0.018 mPa·s
mass density (303.15 K, x1 = 0.7506): 1308.1 ± 1.6 kg/m3
speed of sound (303.15 K, x1 = 0.7506): 980 ± 3 m/s
viscosity (303.15 K, x1 = 0.7506): 0.629 ± 0.017 mPa·s
mass density (303.15 K, x1 = 0.8): 1340.17 ± 1.7 kg/m3
speed of sound (303.15 K, x1 = 0.8): 974 ± 3 m/s
viscosity (303.15 K, x1 = 0.8): 0.608 ± 0.017 mPa·s
mass density (303.15 K, x1 = 0.8507): 1373.01 ± 1.7 kg/m3
speed of sound (303.15 K, x1 = 0.8507): 970 ± 3 m/s
viscosity (303.15 K, x1 = 0.8507): 0.596 ± 0.016 mPa·s
mass density (303.15 K, x1 = 0.9001): 1404.92 ± 1.8 kg/m3
speed of sound (303.15 K, x1 = 0.9001): 967 ± 3 m/s
viscosity (303.15 K, x1 = 0.9001): 0.579 ± 0.016 mPa·s
mass density (303.15 K, x1 = 0.9484): 1436.03 ± 1.8 kg/m3
speed of sound (303.15 K, x1 = 0.9484): 966 ± 3 m/s
viscosity (303.15 K, x1 = 0.9484): 0.562 ± 0.016 mPa·s
mass density (303.15 K, x1 = 1): 1469.21 ± 1.9 kg/m3
speed of sound (303.15 K, x1 = 1): 969 ± 3 m/s
viscosity (303.15 K, x1 = 1): 0.534 ± 0.015 mPa·s
mass density (313.15 K, x1 = 0.0521): 825.28 ± 0.89 kg/m3
speed of sound (313.15 K, x1 = 0.0521): 1136 ± 3 m/s
viscosity (313.15 K, x1 = 0.0521): 1.302 ± 0.032 mPa·s
mass density (313.15 K, x1 = 0.0996): 858.68 ± 0.94 kg/m3
speed of sound (313.15 K, x1 = 0.0996): 1117 ± 3 m/s
viscosity (313.15 K, x1 = 0.0996): 1.243 ± 0.031 mPa·s
mass density (313.15 K, x1 = 0.1504): 894.03 ± 1 kg/m3
speed of sound (313.15 K, x1 = 0.1504): 1098 ± 3 m/s
viscosity (313.15 K, x1 = 0.1504): 1.163 ± 0.029 mPa·s
mass density (313.15 K, x1 = 0.201): 928.92 ± 1.1 kg/m3
speed of sound (313.15 K, x1 = 0.201): 1080 ± 3 m/s
viscosity (313.15 K, x1 = 0.201): 1.077 ± 0.027 mPa·s
mass density (313.15 K, x1 = 0.2498): 962.29 ± 1.1 kg/m3
speed of sound (313.15 K, x1 = 0.2498): 1064 ± 3 m/s
viscosity (313.15 K, x1 = 0.2498): 1.013 ± 0.026 mPa·s
mass density (313.15 K, x1 = 0.3057): 1000.09 ± 1.2 kg/m3
speed of sound (313.15 K, x1 = 0.3057): 1047 ± 3 m/s
viscosity (313.15 K, x1 = 0.3057): 0.919 ± 0.023 mPa·s
mass density (313.15 K, x1 = 0.3499): 1029.85 ± 1.2 kg/m3
speed of sound (313.15 K, x1 = 0.3499): 1034 ± 3 m/s
viscosity (313.15 K, x1 = 0.3499): 0.872 ± 0.022 mPa·s
mass density (313.15 K, x1 = 0.4031): 1065.26 ± 1.3 kg/m3
speed of sound (313.15 K, x1 = 0.4031): 1018 ± 3 m/s
viscosity (313.15 K, x1 = 0.4031): 0.811 ± 0.021 mPa·s
mass density (313.15 K, x1 = 0.451): 1097 ± 1.3 kg/m3
speed of sound (313.15 K, x1 = 0.451): 1006 ± 3 m/s
viscosity (313.15 K, x1 = 0.451): 0.752 ± 0.02 mPa·s
mass density (313.15 K, x1 = 0.5056): 1132.88 ± 1.4 kg/m3
speed of sound (313.15 K, x1 = 0.5056): 992 ± 3 m/s
viscosity (313.15 K, x1 = 0.5056): 0.703 ± 0.019 mPa·s
mass density (313.15 K, x1 = 0.5541): 1164.5 ± 1.4 kg/m3
speed of sound (313.15 K, x1 = 0.5541): 981 ± 3 m/s
viscosity (313.15 K, x1 = 0.5541): 0.662 ± 0.018 mPa·s
mass density (313.15 K, x1 = 0.5994): 1193.91 ± 1.5 kg/m3
speed of sound (313.15 K, x1 = 0.5994): 972 ± 3 m/s
viscosity (313.15 K, x1 = 0.5994): 0.635 ± 0.017 mPa·s
mass density (313.15 K, x1 = 0.6511): 1227.27 ± 1.5 kg/m3
speed of sound (313.15 K, x1 = 0.6511): 961 ± 3 m/s
viscosity (313.15 K, x1 = 0.6511): 0.605 ± 0.016 mPa·s
mass density (313.15 K, x1 = 0.7033): 1260.87 ± 1.6 kg/m3
speed of sound (313.15 K, x1 = 0.7033): 951 ± 3 m/s
viscosity (313.15 K, x1 = 0.7033): 0.592 ± 0.016 mPa·s
mass density (313.15 K, x1 = 0.7506): 1291.08 ± 1.6 kg/m3
speed of sound (313.15 K, x1 = 0.7506): 944 ± 3 m/s
viscosity (313.15 K, x1 = 0.7506): 0.57 ± 0.016 mPa·s
mass density (313.15 K, x1 = 0.8): 1322.66 ± 1.7 kg/m3
speed of sound (313.15 K, x1 = 0.8): 939 ± 3 m/s
viscosity (313.15 K, x1 = 0.8): 0.558 ± 0.015 mPa·s
mass density (313.15 K, x1 = 0.8507): 1354.88 ± 1.8 kg/m3
speed of sound (313.15 K, x1 = 0.8507): 933 ± 3 m/s
viscosity (313.15 K, x1 = 0.8507): 0.547 ± 0.015 mPa·s
mass density (313.15 K, x1 = 0.9001): 1386.24 ± 1.8 kg/m3
speed of sound (313.15 K, x1 = 0.9001): 931 ± 3 m/s
viscosity (313.15 K, x1 = 0.9001): 0.531 ± 0.015 mPa·s
mass density (313.15 K, x1 = 0.9484): 1416.96 ± 1.9 kg/m3
speed of sound (313.15 K, x1 = 0.9484): 931 ± 3 m/s
viscosity (313.15 K, x1 = 0.9484): 0.517 ± 0.015 mPa·s
mass density (313.15 K, x1 = 1): 1449.74 ± 1.9 kg/m3
speed of sound (313.15 K, x1 = 1): 934 ± 3 m/s
viscosity (313.15 K, x1 = 1): 0.491 ± 0.014 mPa·s
